Assay results as given in patent publication US20260201420A1, “HOMOLOGY-INDEPENDENT TARGETED DNA INSERTION IN HUMAN T CELLS” (The Board of Trustees of The Leland Stanford Junior …, priority 2022, published 2026).

Legend:
primary human T cells [1] = assay: HDR inhibitor (AZD0156) modulation of GD2-CAR integration via HITI and HDR; assay type: cell-based
Procedure: (§1) Fresh Leukopaks were obtained from STEMCELL Technologies and processed for negative selection using the EasySep Human T Cell Isolation Kit. Cells were activated using Dynabeads Human T-Activator CD3/CD28 (Thermo Fisher) at a 1:1 ratio and cultivated in TexMACS media supplemented with human IL-7 at 12.5 ng/ml and IL-15 at 12.5 ng/ml (all Miltenyi Biotec) as well as 3% human male AB Serum (Access Cell Culture). The culture volume was expanded over time to maintain cells at a concentration of ^~1.5×10^6/ml using G-Rex 24-well and 6-well plates or G-Rex 100M according to manufacturer's instructions (Wilson-Wolf). Small molecule inhibitors AZD0156 (Selleck Chemicals) and Methotrexate (Sigma Aldrich) were resuspended in DMSO and added to the cell culture media as indicated.
On day 2, unless otherwise indicated, Dynabeads were magnetically removed and cells were counted prior to electroporation on the Maxcyte GTx. For electroporation cells were washed once in Electroporation Buffer (Maxcyte) and then resuspended at 2×10^8/ml for small scale experiments or in 2.4 ml for large-scale electroporation. Wildtype Cas9 (61 μM, IDT) and sgRNA (125 μM, IDT) were mixed vol 1:1 resulting in a molar ratio of 2:1 and incubated for 10 min. at room temperature. Hereafter indicated amounts of plasmid DNA (3 mg/ml) were added to the RNP and incubated for at least 10 min. to allow the RNP to cut the plasmid DNA. For small-scale experiments 5×10^6 T cells were resuspended in 25 μl and 1.25 μl of RNP and respective amounts of plasmid DNA were added. Cells were then transferred into OC-25×3 processing assemblies and electroporated using the Expanded T cell 4 protocol for activated T cells or the Resting T cell 14-3 protocol for electroporation of non-activated T cells, which were stimulated after electroporation with Dynabeads at a 1:1 ratio. Small scale experiments for GPC2 CAR knock-in were conducted using the OC100×2 processing assembly with a final reaction volume of 100 μl. For large scale experiments the GMP compatible CL1.1 assembly was used. […]

primary human T cells [2] = assay: HITI/CEMENT knock-in CAR-T cell manufacturing at clinical scale; assay type: cell-based; settings: end of MTX treatment (day 7), 50 nM
Procedure: as §1
On day 2, unless otherwise indicated, Dynabeads were magnetically removed and cells were counted prior to electroporation on the Maxcyte GTx. For electroporation cells were washed once in Electroporation Buffer (Maxcyte) and then resuspended at 2×10^8/ml for small scale experiments or in 2.4 ml for large-scale electroporation. […]
Cell counts and Viability were obtained using the Nexcelom Cellometer Auto 2000. Samples were mixed with AO/PI dye at a 1:1 volume ratio and then analyzed using the setting Immune Cells—Low RBC. […]

primary human T cells [3] = assay: Titration of MTX in primary human T cells; assay type: cell-based
Procedure: as §1
To enable enrichment of the desired CAR+ knock-in population we optimized CEMENT based selection by comparing three different clinically relevant enrichment markers: Dihydrofolate Reductase^L22F/F31S (DHFR-FS), truncated Epidermal Growth Factor Receptor (tEGFR), and truncated Nerve Growth Factor Receptor (tNGFR)^9,17,33. All three enrichment markers were successfully co-inserted along with the GD2-CAR resulting in total transgene sizes of ^~2.5-3 kb. CRISPR knock-in CAR-T cells were either enriched using the FDA approved drug MTX which was diluted from a 10 mM stock in media to result in a 50 nM final concentration. […]

non-activated T cells = assay: CRISPR knock-in of GD2-CAR in non-activated T cells; assay type: cell-based, human; settings: HITI1c vs HDR2c, day 10
Procedure: (§2) On day 2, unless otherwise indicated, Dynabeads were magnetically removed and cells were counted prior to electroporation on the Maxcyte GTx. For electroporation cells were washed once in Electroporation Buffer (Maxcyte) and then resuspended at 2×10^8/ml for small scale experiments or in 2.4 ml for large-scale electroporation. Wildtype Cas9 (61 μM, IDT) and sgRNA (125 μM, IDT) were mixed vol 1:1 resulting in a molar ratio of 2:1 and incubated for 10 min. at room temperature. Hereafter indicated amounts of plasmid DNA (3 mg/ml) were added to the RNP and incubated for at least 10 min. to allow the RNP to cut the plasmid DNA. For small-scale experiments 5×10^6 T cells were resuspended in 25 μl and 1.25 μl of RNP and respective amounts of plasmid DNA were added. Cells were then transferred into OC-25×3 processing assemblies and electroporated using the Expanded T cell 4 protocol for activated T cells or the Resting T cell 14-3 protocol for electroporation of non-activated T cells, which were stimulated after electroporation with Dynabeads at a 1:1 ratio. Small scale experiments for GPC2 CAR knock-in were conducted using the OC100×2 processing assembly with a final reaction volume of 100 μl. For large scale experiments the GMP compatible CL1.1 assembly was used. Post electroporation cells were rested in electroporation buffer either in the processing assembly (OC-25×3, OC-100×2) or in G-Rex 6-well plates (CL1.1) for 30 min. before being transferred into final G-Rex vessels.
(§3) Cell counts and Viability were obtained using the Nexcelom Cellometer Auto 2000. Samples were mixed with AO/PI dye at a 1:1 volume ratio and then analyzed using the setting Immune Cells—Low RBC.
For GD2-CAR and GPC2-CAR detection, an anti-14g2a idiotype or recombinant human Glypican-2 protein (R&D systems) were fluorescently labeled with the DyLight 650 Microscale Antibody Labeling kit (Thermo Fisher). For intracellular staining CAR+ T cells were co-cultured with respective tumor cell lines at a 1:4 ratio. […]

primary human T cells [4] = assay: CRISPR knock-in of GD2-CAR into TRAC in activated T cells (HDR vs HITI plasmid templates), flow cytometry and cell counts; assay type: cell-based; settings: for knock-in frequencies (mean frequencies): GD2-CAR into TRAC, activated T cells electroporated day 2, flow cytometry day 10, n=4 donors
Procedure: as §1
Plasmid DNA was optimized for gene therapeutic application and consisted of two components: R6K origin of replication and an anti-Levansucrase antisense RNA to allow for an antibiotic-free selection. This ^~430 bp backbone prevents transgene silencing after genomic insertion^40,43,44. Knock-In templates were synthesized at Genscript and flanking cut sites for NheI and KpnI were used to clone synthetic genes into plasmid backbones. To introduce RNP cut sites within the plasmid DNA, the genomic target of the respective RNP was included into the above mentioned synthetic gene.
as §2, §3
For GD2-CAR and GPC2-CAR detection, an anti-14g2a idiotype or recombinant human Glypican-2 protein (R&D systems) were fluorescently labeled with the DyLight 650 Microscale Antibody Labeling kit (Thermo Fisher). For intracellular staining CAR+ T cells were co-cultured with respective tumor cell lines at a 1:4 ratio. Prior to co-cultivation the protein transport inhibitor Monensin (BD) and the anti-CD107a antibody (Biolegend) were added to T cell samples. […]

TRAC = assay: IN&OUT PCR and Sanger sequencing of knock-in junctions; design: species or system human; settings: IN&OUT PCR, Sanger sequencing
Procedure: Genomic DNA was extracted using the PureLink Genomic DNA Mini Kit (Invitrogen). Primers flanking the insertion sites of HITI1c and binding outside the respective homology arm sequence of HDR2c as well as primers binding within the inserted sequences were designed using Primer3Plus (www.primer3plus.com). Phusion Hot Start Flex 2× Mastermix (NEB) was used to amplify genomic regions of interest and DNA gel electrophoresis was conducted using the E-Gel Power Snap System (Thermo Scientific). Samples were shipped to ELIM BIOPHARM for Sanger sequencing. Sequences were aligned for analysis using snapgene.

CN(C)CCCOc1ccc(-c2ccc3ncc4c(c3c2)n(C2CCOCC2)c(=O)n4C)cn1 [AZD0156]
knock-in efficiency of HDR2c when AZD0156 was added (primary human T cells [1]; HDR2c template, 18 hours treatment post electroporation, vs untreated): decreased knock-in efficiency | insertion rates for HITI1c when AZD0156 was added (primary human T cells [1]; HITI1c template, 18 hours treatment post electroporation, vs untreated): higher insertion rates | GD2-CAR T cell yields in HITI1c samples after AZD0156 treatment (primary human T cells [1]; compared to untreated controls): decreased GD2-CAR T cell yields

CN(Cc1cnc2nc(N)nc(N)c2n1)c1ccc(C(=O)N[C@@H](CCC(=O)O)C(=O)O)cc1 [MTX, methotrexate]
effects of MTX on viability of edited vs. non-edited T cells (primary human T cells [2]): only non-edited cells were compromised in their viability | concentration from which efficient killing occurs (primary human T cells [3]; n=2 donors, technical duplicates): ≥ 50 nM | concentration at which MTX exerts cytostatic effects in dividing T cells (primary human T cells [3]; primary human T cells post activation): 50 nM

HITI1c: Knock-In template plasmid, one cut site: cut_site-EFS-Signalpeptide-14g2a-CD8TM-4-1BB-CD3z-STOP-bGH_ployA (SEQ ID NO: 3)
CAR+ T cell yield in non-activated T cells (non-activated T cells): higher | insertion rates in non-activated T cells (non-activated T cells): higher | viability in non-activated T cells (non-activated T cells): higher | knock-in frequencies (mean frequencies) (primary human T cells [4]): 15.7% | GD2-CAR T cell yields, HITI vs HDR (primary human T cells [4]; HITI1c vs HDR2c, day 10, average): ~ 3 fold | GD2-CAR T cell yield, one cut site vs two cut sites (primary human T cells [4]; HITI1c vs HITI2c, day 10): ~ 6 fold | insertion rates, HITI1c vs HDR2c (primary human T cells [4]; activated T cells, day 10): comparable | Indels at both junctions of integrated plasmid construct (TRAC): 6 bp

HITI2c: Knock-In template plasmid, two cut sites: cut_site-EFS-Signalpeptide-14g2a-CD8TM-4-1BB-CD3z-STOP-bGH_ployA-cut_site (SEQ ID NO: 4)
knock-in frequencies (mean frequencies) (primary human T cells [4]): 9.3%
